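Assay format: 96-well plates, 48-hour exposure. GI50 marks 50% less growth. TGI denotes the concentration required for complete inhibition of growth.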
Legend:
Test in all cases: DTP human tumour cell line panel, 48 h
MALME-3M melanoma = tested on: MALME-3M melanoma
PC-3 prostate = tested on: PC-3 prostate
UO-31 renal = tested on: UO-31 renal
SF-539 CNS = tested on: SF-539 CNS
MDA-MB-435 = tested on: MDA-MB-435
KM12 colon = tested on: KM12 colon
SK-OV-3 ovarian = tested on: SK-OV-3 ovarian
NCI-H522 lung = tested on: NCI-H522 lung
COLO 205 colon = tested on: COLO 205 colon
NCI/ADR-RES ovarian = tested on: NCI/ADR-RES ovarian
OVCAR-3 ovarian = tested on: OVCAR-3 ovarian
U251 CNS = tested on: U251 CNS
BT-549 breast = tested on: BT-549 breast
SW-620 colon = tested on: SW-620 colon
HCT-116 colon = tested on: HCT-116 colon
SK-MEL-28 melanoma = tested on: SK-MEL-28 melanoma
TK-10 renal = tested on: TK-10 renal
NCI-H226 lung = tested on: NCI-H226 lung
CAKI-1 renal = tested on: CAKI-1 renal
EKVX NSCLC = tested on: EKVX NSCLC
RPMI-8226 leukemia = tested on: RPMI-8226 leukemia
HCT-15 colon = tested on: HCT-15 colon
MDA-N = tested on: MDA-N
T-47D breast = tested on: T-47D breast
HOP-92 NSCLC = tested on: HOP-92 NSCLC
SK-MEL-2 melanoma = tested on: SK-MEL-2 melanoma
CCRF-CEM leukemia = tested on: CCRF-CEM leukemia
SF-295 CNS = tested on: SF-295 CNS
786-0 renal = tested on: 786-0 renal
SF-268 CNS = tested on: SF-268 CNS
SNB-75 CNS = tested on: SNB-75 CNS
SN12C renal = tested on: SN12C renal
RXF 393 renal = tested on: RXF 393 renal
SR leukemia = tested on: SR leukemia
UACC-62 melanoma = tested on: UACC-62 melanoma
ACHN renal = tested on: ACHN renal
NCI-H23 lung = tested on: NCI-H23 lung
HCC-2998 colon = tested on: HCC-2998 colon
IGROV1 ovarian = tested on: IGROV1 ovarian
HOP-62 NSCLC = tested on: HOP-62 NSCLC
HL-60(TB) leukemia = tested on: HL-60(TB) leukemia
LOX IMVI melanoma = tested on: LOX IMVI melanoma
OVCAR-4 ovarian = tested on: OVCAR-4 ovarian
HS 578T breast = tested on: HS 578T breast
M14 melanoma = tested on: M14 melanoma
MDA-MB-231 breast = tested on: MDA-MB-231 breast
SNB-19 CNS = tested on: SNB-19 CNS
A549 NSCLC = tested on: A549 NSCLC
OVCAR-8 ovarian = tested on: OVCAR-8 ovarian
UACC-257 melanoma = tested on: UACC-257 melanoma
MOLT-4 leukemia = tested on: MOLT-4 leukemia
HT29 colon = tested on: HT29 colon
MCF7 breast = tested on: MCF7 breast
OVCAR-5 ovarian = tested on: OVCAR-5 ovarian
DU-145 prostate = tested on: DU-145 prostate
SK-MEL-5 melanoma = tested on: SK-MEL-5 melanoma
K-562 leukemia = tested on: K-562 leukemia
NCI-H460 lung = tested on: NCI-H460 lung

Cc1ccc(/C=C2\N=C(N3CCOCC3)NC2=O)cc1
TGI (MALME-3M melanoma): > 100 µM | TGI (PC-3 prostate): > 100 µM | TGI (UO-31 renal): > 100 µM | TGI (SF-539 CNS): > 100 µM | TGI (MDA-MB-435): > 100 µM | TGI (KM12 colon): > 100 µM | TGI (SK-OV-3 ovarian): > 100 µM | TGI (NCI-H522 lung): > 100 µM | TGI (COLO 205 colon): > 100 µM | TGI (NCI/ADR-RES ovarian): > 100 µM | TGI (OVCAR-3 ovarian): > 100 µM | TGI (U251 CNS): > 100 µM | TGI (BT-549 breast): > 100 µM | TGI (SW-620 colon): > 100 µM | TGI (HCT-116 colon): > 100 µM | TGI (SK-MEL-28 melanoma): > 100 µM | TGI (TK-10 renal): > 100 µM | TGI (NCI-H226 lung): > 100 µM | TGI (CAKI-1 renal): > 100 µM | TGI (EKVX NSCLC): > 100 µM | TGI (RPMI-8226 leukemia): > 100 µM | TGI (HCT-15 colon): > 100 µM | TGI (MDA-N): > 100 µM | TGI (T-47D breast): > 100 µM | TGI (HOP-92 NSCLC): > 100 µM | TGI (SK-MEL-2 melanoma): > 100 µM | TGI (CCRF-CEM leukemia): > 100 µM | TGI (SF-295 CNS): > 100 µM | TGI (786-0 renal): > 100 µM | TGI (SF-268 CNS): > 100 µM | TGI (SNB-75 CNS): > 100 µM | TGI (SN12C renal): > 100 µM | TGI (RXF 393 renal): > 100 µM | TGI (SR leukemia): > 100 µM | TGI (UACC-62 melanoma): > 100 µM | TGI (ACHN renal): > 100 µM | TGI (NCI-H23 lung): > 100 µM | TGI (HCC-2998 colon): > 100 µM | TGI (IGROV1 ovarian): > 100 µM | TGI (HOP-62 NSCLC): > 100 µM | TGI (HL-60(TB) leukemia): > 100 µM | TGI (LOX IMVI melanoma): > 100 µM | TGI (OVCAR-4 ovarian): > 100 µM | TGI (HS 578T breast): > 100 µM | TGI (M14 melanoma): > 100 µM | TGI (MDA-MB-231 breast): > 100 µM | TGI (SNB-19 CNS): > 100 µM | TGI (A549 NSCLC): > 100 µM | TGI (OVCAR-8 ovarian): > 100 µM | TGI (UACC-257 melanoma): > 100 µM | TGI (MOLT-4 leukemia): > 100 µM | TGI (HT29 colon): > 100 µM | TGI (MCF7 breast): > 100 µM | TGI (OVCAR-5 ovarian): > 100 µM | TGI (DU-145 prostate): > 100 µM

COc1cc(O)c2c(=O)c(OC)c(-c3ccc(OC)c(OC)c3)oc2c1.[Co]
GI50 (MALME-3M melanoma): 51.4 µM | TGI (MALME-3M melanoma): > 100 µM | GI50 (PC-3 prostate): 66.7 µM | TGI (PC-3 prostate): > 100 µM | TGI (UO-31 renal): > 100 µM | TGI (SF-539 CNS): > 100 µM | TGI (MDA-MB-435): > 100 µM | GI50 (KM12 colon): > 100 µM | TGI (KM12 colon): > 100 µM | TGI (SK-OV-3 ovarian): > 100 µM | TGI (NCI-H522 lung): 35.1 µM | TGI (COLO 205 colon): > 100 µM | GI50 (NCI/ADR-RES ovarian): > 100 µM | TGI (NCI/ADR-RES ovarian): > 100 µM | GI50 (OVCAR-3 ovarian): > 100 µM | TGI (OVCAR-3 ovarian): > 100 µM | TGI (U251 CNS): > 100 µM | TGI (BT-549 breast): > 100 µM | TGI (SW-620 colon): > 100 µM | GI50 (HCT-116 colon): 61.6 µM | TGI (HCT-116 colon): > 100 µM | GI50 (SK-MEL-28 melanoma): > 100 µM | TGI (SK-MEL-28 melanoma): > 100 µM | GI50 (SK-MEL-5 melanoma): 70.3 µM | TGI (SK-MEL-5 melanoma): > 100 µM | TGI (TK-10 renal): > 100 µM | TGI (NCI-H226 lung): > 100 µM | TGI (CAKI-1 renal): > 100 µM | GI50 (EKVX NSCLC): > 100 µM | TGI (EKVX NSCLC): > 100 µM | TGI (RPMI-8226 leukemia): > 100 µM | TGI (MDA-N): > 100 µM | GI50 (T-47D breast): 10.7 µM | TGI (T-47D breast): > 100 µM | GI50 (HOP-92 NSCLC): 31.8 µM | TGI (HOP-92 NSCLC): > 100 µM | GI50 (K-562 leukemia): 75.5 µM | TGI (K-562 leukemia): > 100 µM | TGI (NCI-H460 lung): > 100 µM | GI50 (SF-295 CNS): 16.2 µM | TGI (SF-295 CNS): > 100 µM | TGI (786-0 renal): > 100 µM | GI50 (SF-268 CNS): 38.4 µM | TGI (SF-268 CNS): > 100 µM | TGI (SNB-75 CNS): > 100 µM | TGI (SN12C renal): > 100 µM | TGI (RXF 393 renal): > 100 µM | GI50 (SR leukemia): 5.29 µM | TGI (SR leukemia): > 100 µM | GI50 (UACC-62 melanoma): 32.3 µM | TGI (UACC-62 melanoma): > 100 µM | GI50 (ACHN renal): 56.9 µM | TGI (ACHN renal): > 100 µM | GI50 (NCI-H23 lung): > 100 µM | TGI (NCI-H23 lung): > 100 µM | GI50 (HCC-2998 colon): > 100 µM | TGI (HCC-2998 colon): > 100 µM | GI50 (IGROV1 ovarian): > 100 µM | TGI (IGROV1 ovarian): > 100 µM | GI50 (HOP-62 NSCLC): 34.5 µM | TGI (HOP-62 NSCLC): > 100 µM | TGI (HL-60(TB) leukemia): > 100 µM | GI50 (LOX IMVI melanoma): > 100 µM | TGI (LOX IMVI melanoma): > 100 µM | GI50 (OVCAR-4 ovarian): 13.1 µM | TGI (OVCAR-4 ovarian): > 100 µM | TGI (HS 578T breast): > 100 µM | GI50 (M14 melanoma): > 100 µM | TGI (M14 melanoma): > 100 µM | GI50 (MDA-MB-231 breast): 18.1 µM | TGI (MDA-MB-231 breast): > 100 µM | TGI (A549 NSCLC): > 100 µM | GI50 (OVCAR-8 ovarian): > 100 µM | TGI (OVCAR-8 ovarian): > 100 µM | GI50 (MOLT-4 leukemia): 9.92 µM | TGI (MOLT-4 leukemia): > 100 µM | GI50 (HT29 colon): > 100 µM | TGI (HT29 colon): > 100 µM | GI50 (MCF7 breast): > 100 µM | TGI (MCF7 breast): > 100 µM | GI50 (OVCAR-5 ovarian): > 100 µM | TGI (OVCAR-5 ovarian): > 100 µM | GI50 (DU-145 prostate): > 100 µM | TGI (DU-145 prostate): > 100 µM

CN=C(NN)NS(=O)(=O)c1cc(C)c(Cl)cc1S
TGI (MALME-3M melanoma): > 100 µM | TGI (PC-3 prostate): > 100 µM | TGI (UO-31 renal): 74.7 µM | TGI (SF-539 CNS): > 100 µM | TGI (MDA-MB-435): > 100 µM | TGI (KM12 colon): > 100 µM | TGI (SK-OV-3 ovarian): > 100 µM | TGI (NCI-H522 lung): 97.7 µM | TGI (COLO 205 colon): > 100 µM | TGI (NCI/ADR-RES ovarian): > 100 µM | TGI (OVCAR-3 ovarian): > 100 µM | TGI (U251 CNS): > 100 µM | TGI (BT-549 breast): > 100 µM | TGI (SW-620 colon): > 100 µM | TGI (HCT-116 colon): > 100 µM | TGI (SK-MEL-28 melanoma): > 100 µM | TGI (SK-MEL-5 melanoma): > 100 µM | TGI (TK-10 renal): > 100 µM | TGI (NCI-H226 lung): > 100 µM | TGI (CAKI-1 renal): > 100 µM | TGI (EKVX NSCLC): > 100 µM | TGI (RPMI-8226 leukemia): > 100 µM | TGI (HCT-15 colon): > 100 µM | TGI (MDA-N): > 100 µM | TGI (T-47D breast): > 100 µM | TGI (HOP-92 NSCLC): > 100 µM | TGI (SK-MEL-2 melanoma): > 100 µM | TGI (K-562 leukemia): > 100 µM | TGI (CCRF-CEM leukemia): > 100 µM | TGI (786-0 renal): > 100 µM | TGI (SF-268 CNS): > 100 µM | TGI (SNB-75 CNS): > 100 µM | TGI (SN12C renal): > 100 µM | TGI (RXF 393 renal): > 100 µM | TGI (SR leukemia): > 100 µM | TGI (UACC-62 melanoma): > 100 µM | TGI (HCC-2998 colon): > 100 µM | TGI (IGROV1 ovarian): > 100 µM | TGI (HOP-62 NSCLC): > 100 µM | TGI (HL-60(TB) leukemia): > 100 µM | TGI (LOX IMVI melanoma): > 100 µM | TGI (OVCAR-4 ovarian): > 100 µM | TGI (HS 578T breast): 75.3 µM | TGI (M14 melanoma): > 100 µM | TGI (MDA-MB-231 breast): > 100 µM | TGI (SNB-19 CNS): > 100 µM | TGI (A549 NSCLC): > 100 µM | TGI (OVCAR-8 ovarian): > 100 µM | TGI (UACC-257 melanoma): > 100 µM | TGI (HT29 colon): > 100 µM | TGI (MCF7 breast): > 100 µM | TGI (OVCAR-5 ovarian): > 100 µM | TGI (DU-145 prostate): > 100 µM

Source: PubChem BioAssay (NCI)
